The results in this text go back to patent US7202239B2, “Cyclohexylphenyl carboxamides tocolytic oxytocin receptor antagonists” (Wyeth, priority 2001, dated 2007).

Where only a bound is given, the exact number is not on record here.

The assay has as its target human vasopressin V1a receptor subtype (Homo sapiens, UniProt P37288). Kind of assay: Vasopressin binding in CHO cell membranes expressing human vasopressin V1a subtype receptors. To be noted: [3H]Manning ligand; for inhibition at 0.1 µM / V1a % inhibition at 100 nM: 100 nM. From the text: Vasopressin Binding in Chinese Hamster Ovary Cell Membranes Expressing Human Vasopressin V1a Subtype Receptors
Chinese hamster ovary cells (CHO cells) stably transfected with the human vasopressin V1a subtype receptors were either obtained from Biosignal Inc., 1744 rue Williams, Montreal, Quebec, Canada or obtained from M. Thibonnier, Case Western Reserve University School of Medicine, Cleveland, Ohio. A. Passaging and Amplification of Cells: CHO cells transfected with the human vasopressin V1a subtype receptors obtained from M. Thibonnier (pZeoSV vector) are allowed to grow to confluency (approx. >90%) in T-150 flasks under sterile conditions, in a cell culture medium of F-12 Nutrient Mixture (HAM) with L-glutamine (Gibco Cat. # 11765-054) containing 15 mM HEPES (Gibco Cat. 15630-080), 1% antibiotic/antimycotic (add 5 mL 100×, Gibco Cat. 15240-062 per 500 mL F-12), 250 μg/mL Zeocin (add 1.25 mL of 100 mg/mL Invitrogen R-250-01 per 500 mL F-12) and 10% Fetal Bovine Serum (Qualified, heat inactivated, Gibco Cat. # 16140-063). The medium is removed by aspiration and the cells are washed with 10 mL of Hank's Balanced Salt solution (Gibco Cat. # 14175-095). The salt solution is removed by aspiration and the cells are trypsinized with 5 mL of trypsin-EDTA (0.05% trypsin, 0.53 mM EDTA-4Na, Gibco Cat. # 25300-070) for 1 min. The trypsin is removed by aspiration and the cells dislodged by tapping. Cell Culture medium (eg, 30 mL for 1:30 split) is immediately added and mixed well to inactivate trypsin. 1 mL of detached cells is added to new culture flasks containing fresh cell culture medium (eg, into 25 mL per T-150 flask), and mixed gently. The cells are incubated at 37° C. in 5% CO2. The medium is changed at 3 to 4 days interval (or as appropriate). The cells grow to confluency (approx. >75%–95%) within 7–8 days. All steps are done under sterile conditions. B. Membrane Preparation: The cells are washed twice gently with Hank's Balanced Salt solution (e.g,. use 10 mL per T-150 flask). The excess is removed and the cells are bathed for 15–30 min. in an enzyme-free Cell Dissociation Buffer (e.g. use 8 mL Hank's Based, Gibco Cat. # 13150-016 per T-150 flask) until the cells are loosened. The contents are transferred to centrifuge tubes (50 mL) kept in an ice bath. All subsequent steps are done at 4° C. The tubes are centrifuged at 300×g for 15 min (1380 rpm on SORVAL, Model RT6000D, using rotor for the 50 mL tubes). The supernatant is discarded and the cells suspended in homogeneizing buffer(10 mM Tris-HCl containing 0.25 M sucrose and 1 mM EDTA, pH 7.4) ensuring that the volume of the buffer is about ten times the volume of the cell pellet. The cells are pooled into a centrifuge tube (50 mL) and homogenized with Polytron at setting 6 for 10 sec. The homogenate is transferred into a Potter-Elvjehm homogenizer and homogenized with 3 strokes. The homogenate is centrifuged at 1500× g for 10 min at 4° C. (3100 rpm using SORVAL, model RT6000D, using the rotor for 50 mL tubes). The pellet is discarded. The supernatant is centrifuged at 100,000×g for 60 min. at 4° C. (Beckman L8-80M ultracentrifuge; spin at 37,500 rpm with rotor type 70 Ti for 50 mL tubes; 38,000 rpm with type 80Ti for 15 mL tubes; or 35,800 rpm with rotor type 45Ti). The supernantant is discarded and the pellet suspended in 3 to 4 mL of Tris buffer (50 mM TRIS-HCl, pH 7.4). The protein content is estimated by the Bradford or Lowry method. The volume of the membrane suspension is adjusted with the membrane buffer (50 mM Tris-HCl containing 0.1% BSA and 0.1 mM PMSF) to give 3.0 mg/mL (or as appropriate) of protein. The membranes are aliquoted and stored at −70° C. C. […]

human vasopressin V1a receptor subtype, sequence (P37288 whole entry): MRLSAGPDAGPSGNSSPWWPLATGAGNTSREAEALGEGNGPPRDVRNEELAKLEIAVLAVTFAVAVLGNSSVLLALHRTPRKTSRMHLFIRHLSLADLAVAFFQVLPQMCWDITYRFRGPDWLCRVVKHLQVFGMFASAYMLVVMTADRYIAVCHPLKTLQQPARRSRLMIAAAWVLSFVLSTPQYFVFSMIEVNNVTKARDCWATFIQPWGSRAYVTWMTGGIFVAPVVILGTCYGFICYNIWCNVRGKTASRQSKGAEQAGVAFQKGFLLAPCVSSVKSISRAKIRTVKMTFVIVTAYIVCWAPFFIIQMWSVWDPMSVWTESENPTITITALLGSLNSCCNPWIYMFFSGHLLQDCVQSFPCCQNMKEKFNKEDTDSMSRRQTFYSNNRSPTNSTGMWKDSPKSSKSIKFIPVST

As for `Cc1ccccc1N1CCN(C(=O)c2ccc3n2Cc2ccccc2N(C(=O)c2ccc(C4CCCCC4)cc2)C3)CC1` [Example 27, [10-(4-Cyclohexyl-benzoyl)-10,11-dihydro-5H-pyrrolo[2,1-c][1,4]benzodiazepin-3-yl][4-(2-methylphenyl)-1-piperazinyl]-methanone], at 0.1 µM the inhibition was 6%. As for `O=C(c1ccc2n1Cc1ccccc1N(C(=O)c1ccc(C3CCCCC3)cc1)C2)N1CCN(c2ccccn2)CC1` [Example 28, [10-(4-Cyclohexyl-benzoyl)-10,11-dihydro-5H-pyrrolo[2,1-c][1,4]benzodiazepine 3-yl][4-(2-pyridinyl)-1-piperazinyl]-methanone], the IC50 (value in parentheses) is greater than 1000 nM. In the case of `COc1ccc(NC(=O)c2ccc3n2Cc2ccccc2N(C(=O)c2ccc(C4CCCCC4)cc2)C3)cc1` [Example 29, 10-(4-Cyclohexyl-benzoyl)-10,11-dihydro-5H-pyrrolo[2,1-c][1,4]benzodiazepine-3-carboxylic acid (4-methoxy-phenyl)-amide], the inhibition at 0.1 µM turned out to be 2%. Still for that read-out and setting: to `CN1CCCN(C(=O)c2ccc3n2Cc2ccccc2N(C(=O)c2ccc(C4CCCCC4)cc2)C3)CC1` [Example 30, [10-(4-Cyclohexyl-benzoyl)-10,11-dihydro-5H-pyrrolo[2,1-c][1,4]benzodiazepin-3-yl](4-methyl-[1,4]-diazepan-1-yl)-methanone] belongs 49%. For the compound `O=C(C(=O)N1CCC(N2CCCCC2)CC1)c1ccc2n1Cc1ccccc1N(C(=O)c1ccc(C3CCCCC3)cc1)C2` [Example 31, 1-[1.4′]Bipiperidinyl-1′-yl-2-[10-(4-cyclohexyl-benzoyl)-10,11-dihydro-5H-pyrrolo[2,1-c][1,4]benzodiazepin-3-yl]-ethane-1,2-dione], the “V1a % inhibition at 100 nM” value came out at 69%. The same measure, in the same setting: to `CN1CCN(C(=O)C(=O)c2ccc3n2Cc2ccccc2N(C(=O)c2ccc(C4CCCCC4)cc2)C3)CC1` [Example 32, 1-[10-(4-Cyclohexyl-benzoyl)-10,11-dihydro-5H-pyrrolo[2,1-c][1,4]benzodiazepin-3-yl]-2-(4-methyl-1-piperazin-1-yl)-1,2-ethane-1,2-dione] belongs 56%. Take `CN(C)CCCNC(=O)c1ccc2n1Cc1ccccc1N(C(=O)c1ccc(C3CCCCC3)cc1)C2` [Example 33, 10-(4-Cyclohexyl-benzoyl)-N-[3-(dimethylamino)propyl]-10,11-dihydro-5H-pyrrolo[2,1-c][1,4]benzodiazepine-3-carboxamide]: the inhibition at 0.1 µM was 27%. Same read-out and setting: to `CN(C)CCN(C)C(=O)c1ccc2n1Cc1ccccc1N(C(=O)c1ccc(C3CCCCC3)cc1)C2` [Example 34, 10-(4-Cyclohexyl-benzoyl)-N-[2-(dimethylamino)-ethyl]-N-methyl-10,11-dihydro-5H-pyrrolo[2,1-c][1,4]benzodiazepine-3-carboxamide] belongs 3%; to `CN(C)CCCN(C)C(=O)c1ccc2n1Cc1ccccc1N(C(=O)c1ccc(C3CCCCC3)cc1)C2` [Example 35, 10-(4-Cyclohexyl-benzoyl)-N-[3-(dimethylamino)propyl]N-methyl-10,11-dihydro-5H-pyrrolo[2,1-c][1,4]benzodiazepine-3-carboxamide], 12%; to `O=C(NCCCn1ccnc1)c1ccc2n1Cc1ccccc1N(C(=O)c1ccc(C3CCCCC3)cc1)C2` [Example 36, 10-(4-Cyclohexyl-benzoyl)-N-[3-(1H-imidazol-1-yl)propyl]-10,11-dihydro-5H-pyrrolo[2,1-c][1,4]benzodiazepine-3-carboxamide], 3%. As to `O=C(NCCN1CCCCC1)c1ccc2n1Cc1ccccc1N(C(=O)c1ccc(C3CCCCC3)cc1)C2` [Example 37, 10-(4-Cyclohexyl-benzoyl)-N-[2-(1-piperidinyl)ethyl]-10,11-dihydro-5H-pyrrolo[2,1-c][1,4]benzodiazepine-3-carboxamide], the inhibition at 0.1 µM was determined as 23%. On the same count and under the same terms, to `CN1CCCC1CCNC(=O)c1ccc2n1Cc1ccccc1N(C(=O)c1ccc(C3CCCCC3)cc1)C2` (stereo not drawn) [Example 38, 10-(4-Cyclohexyl-benzoyl)-N-[2-(1-methyl-2-pyrrolidinyl)ethyl]-10,11-dihydro-5H-pyrrolo[2,1-c][1,4]benzodiazepine-3-carboxamide] belongs 31%; to `CN1CCC(N(C)C(=O)c2ccc3n2Cc2ccccc2N(C(=O)c2ccc(C4CCCCC4)cc2)C3)CC1` [Example 39, 10-(4-Cyclohexyl-benzoyl)-N-methyl-N-(1-methyl-4-piperidinyl)-10,11-dihydro-5H-pyrrolo[2,1-c][1,4]benzodiazepine-3-carboxamide], 43%.

`CN1CCC(N(C)C(=O)c2ccc3n2Cc2ccccc2N(C(=O)c2ccc(C4CCCCC4)cc2)C3)C1` (stereo not drawn) [Example 40, 10-(4-Cyclohexyl-benzoyl)-N-methyl-N-(1-methyl-3-pyrrolidinyl)-10,11-dihydro-5H-pyrrolo[2,1-c][1,4]benzodiazepine-3-carboxamide] displayed an inhibition at 0.1 µM of 22%. The same measure, in the same setting: to `CN(C)CCN1CCN(C(=O)c2ccc3n2Cc2ccccc2N(C(=O)c2ccc(C4CCCCC4)cc2)C3)CC1` [Example 41, [10-(4-Cyclohexyl-benzoyl)-10,11-dihydro-5H-pyrrolo[2,1-c][1,4]benzodiazepin-3-yl]{4-[2-(dimethylamino)ethyl]-1-piperazinyl}methanone] belongs 14%; to `O=C(c1ccc2n1Cc1ccccc1N(C(=O)c1ccc(C3CCCCC3)cc1)C2)N1CCN(CCN2CCOCC2)CC1` [Example 42, [10(4-Cyclohexyl-benzoyl)-10,11-dihydro-5H-pyrrolo[2,1-c][1,4]benzodiazepin-3-yl]{4-[2-(4-morpholinyl)ethyl]-1-piperazinyl}methanone], 28%; to `C=CCN1CCN(C(=O)c2ccc3n2Cc2ccccc2N(C(=O)c2ccc(C4CCCCC4)cc2)C3)CC1` [Example 43, (4-Allyl-1-piperazinyl)[10-(4-cyclohexyl-benzoyl)-10,11-dihydro-5H-pyrrolo[2,1-c][1,4]benzodiazepin-3-yl]methanone], 1%. On the same count and under the same terms, in the case of `CC(C)N1CCN(C(=O)c2ccc3n2Cc2ccccc2N(C(=O)c2ccc(C4CCCCC4)cc2)C3)CC1` [Example 44, [10-(4-Cyclohexyl-benzoyl)-10,11-dihydro-5H-pyrrolo[2,1-c][1,4]benzodiazepin-3-yl](4-isopropyl-1-piperazinyl)methanone] it was 1%. The same measure, in the same setting: in the case of `CN(C)CCCN1CCN(C(=O)c2ccc3n2Cc2ccccc2N(C(=O)c2ccc(C4CCCCC4)cc2)C3)CC1` [Example 45, [10-(4-Cyclohexyl-benzoyl)-10,11-dihydro-5H-pyrrolo[2,1-c][1,4]benzodiazepin-3-yl]{4-[3-(dimethylamino)propyl]-1-piperazinyl}methanone] it was 31%. Turning to `O=C(c1ccc(C2CCCCC2)cc1)N1Cc2ccc(C(=O)N3CCC[C@H]3CN3CCCC3)n2Cc2ccccc21` [Example 46, [10-(4-Cyclohexyl-benzoyl)-10,11-dihydro-5H-pyrrolo[2,1-c][1.4]benzodiazepin-3-yl][(2S)-2-(1-pyrrolidinylmethyl)pyrrolidinyl]methanone], the “V1a % inhibition at 100 nM” value was found to be 21%. The same measure, in the same setting: in the case of `CN(C)[C@@H]1CCN(C(=O)c2ccc3n2Cc2ccccc2N(C(=O)c2ccc(C4CCCCC4)cc2)C3)C1` [Example 47, [10-(4-Cyclohexyl-benzoyl)-10,11-dihydro-5H-pyrrolo[2,1-C][1,4]benzodiazepin-3-yl][(3R)-3-(dimethylamino)pyrrolidinyl]methanone] it was 28%.

One may read the inhibition as the drop in the measured response relative to a control, in per cent. For orientation: IC50 means the concentration that gives 50% inhibition.
